Assay results published in US20030224978A1, “Compounds and methods for modulating apoptosis” (McGill University, priority 1996, published 2003).
Entries after “also recorded” stand apart in the source; their conditions may differ.

Assays:
control 3T3 cells = test: Neurite outgrowth of rat cerebellar neurons on control 3T3 cells (Example 14); type: cell-based; conditions: increasing concentrations
Description: Cell culture and neurite outgrowth assays. Co-cultures of cerebellar neurons on monolayers of control 3T3 cells and monolayers of transfected 3T3 cells that express physiological levels of chick N-cadherin or human L1 were established as previously described (Williams et al., Neuron 13:583-594, 1994). In brief, 80,000 3T3 cells (control and transfected) were plated into individual chambers of an eight-chamber tissue culture slide coated with polylysine and fibronectin and cultured in DMEM/10% FCS. After 24 hours, when confluent monolayers had formed, the medium was removed and 3000 cerebellar neurons isolated from post-natal day 2-3 rats were plated into each well in SATO media (Doherty et al., Nature 343:464-466, 1990) supplemented with 2% FCS. All of the test peptides were added immediately before the neurons as a 2×stock prepared in SATO/2% FCS. […] The mean length of the longest neurite per cell was measured for 150-200 neurons sampled in replicate cultures as previously described (Williams et al., Neuron 13:583-594, 1994). […] Dose-response curves were evaluated and the EC50 values determined.
Effects of cyclic HAV peptides on N-cadherin function. […] The cells were then fixed and the length of the longest neurite on 150-200 neurons was determined by standard assay, as described above. […]

human skin = test: Human skin permeability, penetration of fluorescent markers, Franz Cell apparatus; conditions: compared to N-Ac-CHGVC-NH2
Description: A third cell adhesion assay involves evaluating the effect of a cyclic peptide on permeability of adherent epithelial and/or endothelial cell layers. For example, the effect of permeability on human skin may be evaluated. Such skin may be derived from a natural source or may be synthetic. Human abdominal skin for use in such assays may generally be obtained from humans at autopsy within 24 hours of death. Briefly, a cyclic peptide and a test marker (e.g., the fluorescent markers Oregon Green™ and Rhodamine Green™ Dextran) may be dissolved in a sterile buffer, and the ability of the marker to penetrate through the skin and into a receptor fluid may be measured using a Franz Cell apparatus (Franz, Curr. Prob. Dermatol. 7:58-68, 1978; Franz, J. Invest. Dermatol. 64:190-195, 1975). In general, a modulating agent that enhances the permeability of human skin results in a statistically significant increase in the amount of marker in the receptor compartment after 6-48 hours in the presence of 500 μg/mL modulating agent. This assay evaluates the effect of a modulating agent on E-cadherin mediated cell adhesion.
Abdominal skin from humans at autopsy within 24 hours of death was used in these assays. The effect of N-Ac-CHAVC-NH2 (SEQ ID NO:10) and N-Ac-CHGVC-NH2 (SEQ ID NO:20), used at a concentration of 500 μg/ml or 2.5 mg/ml, on the penetration of two fluorescent markers, Oregon Green 488 (charge −1, MW 386 daltons) and Rhodamine Green 3000 Dextran (no charge, MW 3000 daltons) through human skin was then evaluated utilizing a Franz Cell apparatus (Franz, Curr. Prob. Dermatol. 7:58-68, 1978; Franz, J. Invest. Dermatol. 64:190-195, 1975). The peptides and markers were dissolved in sterile phosphate buffer, pH 7.2, and phosphate buffer was used as the receptor fluid. 150 μl of solution containing 0.2 mg Oregon Green and 1.0 mg Rhodamine Green was used to evaluate 500 μg/ml peptide; 200 μl of solution containing 0.05 mg Oregon Green and 1.250 mg Rhodamine Green was used to evaluate 2.5 mg/ml peptide. The solution was placed on top of the epidermal side of the skin, and the penetration of the markers through the skin was assessed using a fluorescent spectrophotometric method (in a Perkin Elmer 650-105 Fluorescence Spectrophotometer, and comparing the reading to a standard curve) at 6, 12, 24, 36, and 48 hours after the start of the experiment. The fluorescent units were converted to a concentration unit of microgram/5 ml (volume of the receiver compartment) using a standard curve and regression analysis equations. The curve was linear for the concentrations tested for both markers (r^2=1 for OrG and 0.997 for RhG). For each peptide and marker combination, the experiment was performed in triplicate.

N-CAM = target: T1, N-CAM (Homo sapiens, UniProt P13591); test: Neurite outgrowth of mouse cerebellar neurons on 3T3 cells expressing N-CAM (Example 2); type: cell-based; conditions: 500 μg/mL
T1 construct: expressed in transfected cells; host or cells: 3T3 cells
T1 sequence (P13591 20-858, species assumed): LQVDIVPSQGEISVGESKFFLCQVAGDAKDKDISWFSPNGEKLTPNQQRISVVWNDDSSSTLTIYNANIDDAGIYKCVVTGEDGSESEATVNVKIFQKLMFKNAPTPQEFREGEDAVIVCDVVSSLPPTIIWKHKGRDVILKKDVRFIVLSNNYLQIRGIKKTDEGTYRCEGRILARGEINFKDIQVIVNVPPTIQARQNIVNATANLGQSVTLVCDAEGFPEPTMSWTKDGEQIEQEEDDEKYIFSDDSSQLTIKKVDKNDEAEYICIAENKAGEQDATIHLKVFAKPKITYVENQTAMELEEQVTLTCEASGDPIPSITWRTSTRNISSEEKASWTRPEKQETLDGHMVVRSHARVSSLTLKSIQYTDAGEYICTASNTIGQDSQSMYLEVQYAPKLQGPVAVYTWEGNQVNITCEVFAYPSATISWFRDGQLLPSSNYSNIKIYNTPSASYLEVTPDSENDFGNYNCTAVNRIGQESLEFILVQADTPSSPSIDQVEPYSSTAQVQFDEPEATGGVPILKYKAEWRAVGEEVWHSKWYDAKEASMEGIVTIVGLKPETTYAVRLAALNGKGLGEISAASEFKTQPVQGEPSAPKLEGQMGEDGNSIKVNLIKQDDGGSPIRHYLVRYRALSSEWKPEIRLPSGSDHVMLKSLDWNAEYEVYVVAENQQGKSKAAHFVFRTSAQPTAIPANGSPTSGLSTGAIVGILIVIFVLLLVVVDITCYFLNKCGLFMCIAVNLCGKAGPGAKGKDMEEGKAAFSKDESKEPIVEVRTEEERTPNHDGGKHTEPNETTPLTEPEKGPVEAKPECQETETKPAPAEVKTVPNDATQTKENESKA

L1 = L1 (Homo sapiens, UniProt P32004); test: Neurite outgrowth of mouse cerebellar neurons on 3T3 cells expressing L1 (Example 2); type: cell-based; design: expressed in transfected cells; host or cells: 3T3 cells; conditions: 500 μg/mL
Sequence of L1 (P32004 20-1257): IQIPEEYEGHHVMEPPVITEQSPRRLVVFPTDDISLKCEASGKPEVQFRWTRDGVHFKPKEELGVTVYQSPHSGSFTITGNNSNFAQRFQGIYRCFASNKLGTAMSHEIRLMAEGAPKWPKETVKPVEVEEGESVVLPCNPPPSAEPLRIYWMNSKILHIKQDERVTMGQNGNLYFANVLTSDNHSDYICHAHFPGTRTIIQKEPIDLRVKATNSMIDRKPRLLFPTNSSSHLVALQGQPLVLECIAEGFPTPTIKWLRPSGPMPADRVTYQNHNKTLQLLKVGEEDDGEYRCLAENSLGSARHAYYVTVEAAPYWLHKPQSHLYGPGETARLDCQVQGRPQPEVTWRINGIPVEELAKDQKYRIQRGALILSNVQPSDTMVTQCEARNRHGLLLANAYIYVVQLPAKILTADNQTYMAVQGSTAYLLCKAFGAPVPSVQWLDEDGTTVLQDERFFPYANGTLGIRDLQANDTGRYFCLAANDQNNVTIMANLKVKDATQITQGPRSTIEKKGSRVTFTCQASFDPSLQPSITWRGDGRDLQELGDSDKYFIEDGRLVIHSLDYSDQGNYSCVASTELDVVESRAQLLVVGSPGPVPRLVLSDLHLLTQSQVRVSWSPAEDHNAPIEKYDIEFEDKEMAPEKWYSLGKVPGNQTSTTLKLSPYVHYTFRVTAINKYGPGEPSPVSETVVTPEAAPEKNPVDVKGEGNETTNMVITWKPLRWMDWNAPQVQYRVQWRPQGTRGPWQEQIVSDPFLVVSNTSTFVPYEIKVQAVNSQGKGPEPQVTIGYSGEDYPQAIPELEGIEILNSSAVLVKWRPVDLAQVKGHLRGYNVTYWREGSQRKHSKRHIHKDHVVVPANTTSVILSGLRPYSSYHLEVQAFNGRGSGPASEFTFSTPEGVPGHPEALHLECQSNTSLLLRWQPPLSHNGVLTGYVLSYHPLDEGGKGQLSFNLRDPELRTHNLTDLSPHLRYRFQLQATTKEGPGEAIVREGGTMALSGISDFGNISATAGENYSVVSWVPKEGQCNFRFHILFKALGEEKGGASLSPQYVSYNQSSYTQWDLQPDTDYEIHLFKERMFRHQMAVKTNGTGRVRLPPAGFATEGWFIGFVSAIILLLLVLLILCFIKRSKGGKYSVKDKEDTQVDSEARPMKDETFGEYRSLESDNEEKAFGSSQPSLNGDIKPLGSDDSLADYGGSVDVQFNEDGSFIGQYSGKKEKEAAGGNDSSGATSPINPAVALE

[1] = system: SKOV3 human ovarian cancer cells; test: Induction of apoptosis / cell death in SKOV3 cells, in situ cell death detection kit; type: cell-based; conditions: 0.5 or 0.25 mg/mL, 48 hours
Description: Direct assays of induction of apoptosis may be performed using any standard technique. For example, cadherin-expressing cells (e.g., SKOV3 human ovarian cancer cells) may be plated onto poly-L-lysine coated glass slides and cultured with 500 μg/mL of modulating agent for 24-48 hours. Cells may then be fixed and assayed for cell death using any of a variety of well known methods. For example, an in situ cell death detection kit may be purchased from Boehringer Mannheim (Laval, Quebec) and used according to the manufacturer's instructions.
SKOV3 human ovarian cancer cells cultured in the presence of either N-Ac-CHAVC-NH2 (SEQ ID NO:10) or a control peptide (N-Ac-CHGVC-NH2; SEQ ID NO:20) in MEM with 10% FBS were plated onto poly-L-lysine coated glass slides. The cells were cultured for 24 or 48 hours and fixed with 4% paraformaldehyde for 30 minutes at room temperature. The slides were then washed three times with PBS and assessed for cell death. Cells were treated with 0.5 or 0.25 mg/mL of N-Ac-CHAVC-NH2 (SEQ ID NO:10) or the control N-Ac-CHGVC-NH2 (SEQ ID NO:20), as indicated. Cell death was measured as described by Gavrieli et al, J. Cell. Biol. 119:493-501, 1992 and using the In situ cell death detection kit (Boehringer Mannheim; Laval, Quebec).

CC(=O)N[C@H]1CSSC[C@@H](C(N)=O)NC(=O)[C@H](C(C)C)NC(=O)[C@H](C)NC(=O)[C@H](Cc2c[nH]cn2)NC1=O [N-Ac-CHAVC-NH2, N-Ac-Cys-His-Ala-Val-Cys-NH2]
effect on neurite extension over control 3T3 cells (control 3T3 cells): no significant effect on neurite extension over control 3T3 cells; also recorded: had no effect on the basal growth over 3T3 cells
effect on penetration of Oregon Green through the skin, in words (human skin; 500 μg/ml): slightly increased the penetration of Oregon Green
effect on penetration of Rhodamine Green through the skin, in words (human skin; 500 μg/ml): significantly increased
effect on penetration of Oregon Green through the skin, in words (human skin; 2.5 mg/ml): increased the penetration of Oregon Green
effect on penetration of Rhodamine Green through the skin, in words (human skin; 2.5 mg/ml): significantly increased
effect on neurite outgrowth on 3T3 cells expressing N-CAM (N-CAM): did not inhibit neurite outgrowth
effect on neurite outgrowth on 3T3 cells expressing L1 (L1): did not inhibit neurite outgrowth
cell death of SKOV3 cells [1]: the cells are dead; also recorded: cell death
